Measurements: US20220227789A1, “NOVEL INDOLIZINE-2-CARBOXAMIDES ACTIVE AGAINST THE HEPATITIS B VIRUS (HBV)” (AiCuris GmbH & Co. KG, priority 2019, published 2022)

Experiments:
[1] = tested on: HBV; experiment: HBV replication assay: HBV DNA from the supernatants of HepAD38 cells; type: cell-based; conditions: Hepatitis B virus, 144 h, HBV DNA in supernatant by qPCR at day 6, read-out: Cell Activity
Description: Determination of HBV DNA from the Supernatants of HepAD38 Cells
The anti-HBV activity was analysed in the stable transfected cell line HepAD38, which has been described to secrete high levels of HBV virion particles (Ladner et al., 1997). In brief, HepAD38 cells were cultured at 37° C. at 5% CO2 and 95% humidity in 200 μl maintenance medium, which was Dulbecco's modified Eagle's medium/Nutrient Mixture F-12 (Gibco, Karlsruhe), 10% fetal bovine serum (PAN Biotech Aidenbach) supplemented with 50 μg/ml penicillin/streptomycin (Gibco, Karlsruhe), 2 mM L-glutamine (PAN Biotech, Aidenbach), 400 μg/ml G418 (AppliChem, Darmstadt) and 0.3 μg/ml tetracycline. Cells were subcultured once a week in a 1:5 ratio, but were usually not passaged more than ten times. For the assay 60,000 cells were seeded in maintenance medium without any tetracycline into each well of a 96-well plate and treated with serial half-log dilutions of test compound. To minimize edge effects the outer 36 wells of the plate were not used but were filled with assay medium. On each assay plate six wells for the virus control (untreated HepAD38 cells) and six wells for the cell control (HepAD38 cells treated with 0.3 μg/ml tetracycline) were allocated, respectively. In addition, one plate set with reference inhibitors like BAY 41-4109, entecavir, and lamivudine instead of screening compounds were prepared in each experiment. In general, experiments were performed thrice in triplicates. At day 6 HBV DNA from 100 μl filtrated cell culture supernatant (AcroPrep Advance 96 Filter Plate, […] Supor membran, PALL GmbH, Dreieich) was automatically purified on the MagNa Pure LC instrument using the MagNA Pure 96 DNA and Viral NA Small Volume Kit (Roche Diagnostics, Mannheim) according to the instructions of the manufacturer. EC50 values were calculated from relative copy numbers of HBV DNA In brief, 5 μl of the 100 μl eluate containing HBV DNA were subjected to PCR LC480 Probes Master Kit (Roche) together with 1 μM antisense primer […], 0.5 μM sense primer […], 0.3 μM hybprobes […]-FL and LC640-[…]-PH (TIBMolBiol, Berlin) to a final volume of […]. The PCR was performed on the Light Cycler 480 real time system (Roche Diagnostics, Mannheim) using the following protocol: Pre-incubation for 1 min at 95° C., amplification: 40 cycles×(10 sec at 95° C., 50 sec at 60° C., 1 sec at 70° C.), cooling for 10 sec at 40° C. Viral load was quantitated against known standards using HBV plasmid DNA of pCH-9/3091 (Nassal et al., 1990, Cell 63: 1357-1363) and the LightCycler 480 SW 1.5 software (Roche Diagnostics, Mannheim) and EC50 values were calculated using non-linear regression with GraphPad Prism 6 (GraphPad Software Inc., La Jolla, USA).

[2] = target: T1, HBV core protein (C-terminal truncated, 149 aa assembly domain) (Hepatitis B virus genotype D subtype adw, UniProt P03147, C107A/C48A/C61A); experiment: Biochemical capsid assembly assay (fluorescence quenching); conditions: BODIPY-FL labelled core protein, assembly started with NaCl, read after 6 min; read-out: Assembly Activity
T1 construct: The C-terminal truncated core protein containing 149 amino acids of the N-terminal assembly domain; made in house; host or cells: E. coli BL21 (DE3) Rosetta2, plasmid pET21b
Description: Biochemical Capsid Assembly Assay
The screening for assembly effector activity was done based on a fluorescence quenching assay published by Zlotnick et al. (2007). The C-terminal truncated core protein containing 149 amino acids of the N-terminal assembly domain fused to a unique cysteine residue at position 150 and was expressed in E. coli using the pET expression system (Merck Chemicals, Darmstadt). Purification of core dimer protein was performed using a sequence of size exclusion chromatography steps. In brief, the cell pellet from 1 L BL21 (DE3) Rosetta2 culture expressing the coding sequence of core protein cloned NdeI/XhoI into expression plasmid pET21b was treated for 1 h on ice with a native lysis buffer (Qproteome Bacterial Protein Prep Kit; Qiagen, Hilden). After a centrifugation step the supernatant was precipitated during 2 h stirring on ice with 0.23 g/ml of solid ammonium sulfate. Following further centrifugation the resulting pellet was resolved in buffer A (100 mM Tris, pH 7.5; 100 mM NaCl; 2 mM DTT) and was subsequently loaded onto a buffer A equilibrated CaptoCore 700 column (GE HealthCare, Frankfurt). The column flow through containing the assembled HBV capsid was dialyzed against buffer N (50 mM NaHCO3 pH 9.6; 5 mM DTT) before urea was added to a final concentration of 3M to dissociate the capsid into core dimers for 1.5 h on ice. The protein solution was then loaded onto a 1 L Sephacryl 5300 column. After elution with buffer N core dimer containing fractions were identified by SDS-PAGE and subsequently pooled and dialyzed against 50 mM HEPES pH 7.5; 5 mM DTT. To improve the assembly capacity of the purified core dimers a second round of assembly and disassembly starting with the addition of 5 M NaCl and including the size exclusion chromatography steps described above was performed. From the last chromatography step core dimer containing fractions were pooled and stored in aliquots at concentrations between 1.5 to 2.0 mg/ml at −80° C.
Immediately before labelling the core protein was reduced by adding freshly prepared DTT in a final concentration of 20 mM. After […] on ice storage buffer and DTT was removed using a Sephadex G-25 column (GE HealthCare, Frankfurt) and 50 mM HEPES, pH 7.5. For labelling 1.6 mg/ml core protein was incubated at 4° C. and darkness overnight with BODIPY-FL maleimide (Invitrogen, Karlsruhe) in a final concentration of 1 mM. After labelling the free dye was removed by an additional desalting step using a Sephadex G-25 column. Labelled core dimers were stored in aliquots at 4° C. In the dimeric state the fluorescence signal of the labelled core protein is high and is quenched during the assembly of the core dimers to high molecular capsid structures. The screening assay was performed in black 384 well microtiter plates in a total assay volume of 10 μl using 50 mM HEPES pH 7.5 and 1.0 to 2.0 μM labelled core protein. Each screening compound was added in 8 different concentrations using a 0.5 log-unit serial dilution starting at a final concentration of 100 μM, 31.6 μM or 10 μM, In any case the DMSO concentration over the entire microtiter plate was 0.5%. The assembly reaction was started by the injection of NaCl to a final concentration of […] which induces the assembly process to approximately 25% of the maximal quenched signal. 6 min after starting the reaction the fluorescence signal was measured using a Clariostar plate reader (BMG Labtech, Ortenberg) with an excitation of 477 nm and an emission of 525 nm. As 100% and 0% assembly control HEPES buffer containing 2.5 M and 0 M NaCl was used. Experiments were performed thrice in triplicates. EC50 values were calculated by non-linear regression analysis using the Graph Pad Prism 6 software (GraphPad Software, La Jolla, USA).

T1 sequence (P03147 1-150, looked up, stated change not applied): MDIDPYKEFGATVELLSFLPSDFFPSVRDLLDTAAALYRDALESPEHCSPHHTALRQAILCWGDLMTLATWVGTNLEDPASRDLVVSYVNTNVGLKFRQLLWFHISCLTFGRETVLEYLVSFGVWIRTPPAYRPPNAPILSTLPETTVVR

Compound: CC1Cc2[nH]nc(-c3cscn3)c2CN1C(=O)c1cc2ccc(Cl)cn2c1 (stereo not shown) [Example 21, 6-chloro-2-[6-methyl-3-(1,3-thiazol-4-yl)-1H,4H,5H,6H,7H-pyrazolo[4,3-c]pyridine-5-carbonyl]indolizine]
- EC50 [1]: < 1 µM
- IC50 [2]: 5 to 10 µM

Compound: CC1Cc2[nH]nc(-c3cscn3)c2CN1C(=O)c1cc2cc(Cl)c(F)cn2c1 (stereo not shown) [Example 22, 7-chloro-6-fluoro-2-[6-methyl-3-(1,3-thiazol-4-yl)-1H,4H,5H,6H,7H-pyrazolo[4,3-c]pyridine-5-carbonyl]indolizine]
- EC50 [1]: < 1 µM
- IC50 [2]: 5 to 10 µM

Compound: CC1Cc2[nH]nc(-c3cscn3)c2CN1C(=O)c1cc2ccc(F)cn2c1 (stereo not shown) [Example 23, 6-fluoro-2-[6-methyl-3-(1,3-thiazol-4-yl)-1H,4H,5H,6H,7H-pyrazolo[4,3-c]pyridine-5-carbonyl]indolizine]
- EC50 [1]: < 1 µM
- IC50 [2]: < 5 µM

Compound: CC1Cc2[nH]nc(-c3cscn3)c2CN1C(=O)c1cc2c(F)cccn2c1 (stereo not shown) [Example 24, 8-fluoro-2-[6-methyl-3-(1,3-thiazol-4-yl)-1H,4H,5H,6H,7H-pyrazolo[4,3-c]pyridine-5-carbonyl]indolizine]
- EC50 [1]: < 1 µM
- IC50 [2]: < 5 µM

Compound: CC1Cc2[nH]nc(-c3cscn3)c2CN1C(=O)c1cc2c(C(F)(F)F)cccn2c1 (stereo not shown) [Example 25, 2-[6-methyl-3-(1,3-thiazol-4-yl)-1H,4H,5H,6H,7H-pyrazolo[4,3-c]pyridine-5-carbonyl]-8-(trifluoromethyl)indolizine]
- EC50 [1]: < 1 µM
- IC50 [2]: 5 to 10 µM

Compound: CC1Cc2[nH]nc(-c3cscn3)c2CN1C(=O)c1cc2ccccn2c1 (stereo not shown) [Example 26, 2-[6-methyl-3-(1,3-thiazol-4-yl)-1H,4H,5H,6H,7H-pyrazolo[4,3-c]pyridine-5-carbonyl]indolizine]
- EC50 [1]: < 1 µM
- IC50 [2]: < 5 µM

Compound: CC(NC(=O)c1noc2c1CN(C(=O)c1cc3ccccn3c1)CC2)C(F)(F)F (stereo not shown) [Example 51, 5-(indolizine-2-carbonyl)-N-(1,1,1-trifluoropropan-2-yl)-4H,5H,6H,7H-[1,2]oxazolo[4,5-c]pyridine-3-carboxamide]
- EC50 [1]: < 1 µM
- IC50 [2]: < 5 µM

Compound: CC(NC(=O)c1onc2c1CN(C(=O)c1cc3ccccn3c1)CC2)C(F)(F)F (stereo not shown) [Example 53, 5-(indolizine-2-carbonyl)-N-(1,1,1-trifluoropropan-2-yl)-4H,5H,6H,7H-[1,2]oxazolo[4,3-c]pyridine-3-carboxamide]
- EC50 [1]: < 1 µM
- IC50 [2]: < 5 µM
